In paper PMC9186362, “Design and biological evaluation of substituted 5,7-dihydro-6H-indolo[2,3-c]quinolin-6-one as novel selective Haspin inhibitors” (Journal of Enzyme Inhibition and Medicinal Chemistry, 2022):

Legend:
Assay in all cases: LanthaScreen Binding - Eu-anti-GST
Settings in all cases: read-out: Percentage of inhibition
SIK3 = SIK3 (Homo sapiens, UniProt Q9Y2K2)
Procedure: (§1) We further evaluated the selectivity profile of compound 55 on a larger panel of kinases (SelectScreen Whole Panel, Life Technologies). The inhibition profile of 55, evaluated at 1 μM, is depicted on a dendrogram on Figure 3 where kinases inhibited by a minimum of 80% are shown. A full list of the kinases tested is shown on Table S1 in supplementary information.

DMPK = DMPK (Homo sapiens, UniProt Q09013)
Procedure: as §1

ADCK3 = ADCK3 (Homo sapiens, UniProt Q8NI60)
Procedure: as §1

KIT V559D T670I = target: T1, KIT V559D T670I (Homo sapiens, UniProt P10721, T670I/V559D)
T1 construct: purchased Life Technologies
Procedure: as §1

CDK11/cyclin C = target: T2, CDK11/cyclin C (Homo sapiens, UniProt Q9BWU1)
T2 construct: purchased Life Technologies
Procedure: as §1

MLK4 = target: T3, MLK4 (Homo sapiens, UniProt Q5TCX8)
T3 construct: purchased Life Technologies (SelectScreen Whole Panel service)
T3 sequence (Q5TCX8 whole entry): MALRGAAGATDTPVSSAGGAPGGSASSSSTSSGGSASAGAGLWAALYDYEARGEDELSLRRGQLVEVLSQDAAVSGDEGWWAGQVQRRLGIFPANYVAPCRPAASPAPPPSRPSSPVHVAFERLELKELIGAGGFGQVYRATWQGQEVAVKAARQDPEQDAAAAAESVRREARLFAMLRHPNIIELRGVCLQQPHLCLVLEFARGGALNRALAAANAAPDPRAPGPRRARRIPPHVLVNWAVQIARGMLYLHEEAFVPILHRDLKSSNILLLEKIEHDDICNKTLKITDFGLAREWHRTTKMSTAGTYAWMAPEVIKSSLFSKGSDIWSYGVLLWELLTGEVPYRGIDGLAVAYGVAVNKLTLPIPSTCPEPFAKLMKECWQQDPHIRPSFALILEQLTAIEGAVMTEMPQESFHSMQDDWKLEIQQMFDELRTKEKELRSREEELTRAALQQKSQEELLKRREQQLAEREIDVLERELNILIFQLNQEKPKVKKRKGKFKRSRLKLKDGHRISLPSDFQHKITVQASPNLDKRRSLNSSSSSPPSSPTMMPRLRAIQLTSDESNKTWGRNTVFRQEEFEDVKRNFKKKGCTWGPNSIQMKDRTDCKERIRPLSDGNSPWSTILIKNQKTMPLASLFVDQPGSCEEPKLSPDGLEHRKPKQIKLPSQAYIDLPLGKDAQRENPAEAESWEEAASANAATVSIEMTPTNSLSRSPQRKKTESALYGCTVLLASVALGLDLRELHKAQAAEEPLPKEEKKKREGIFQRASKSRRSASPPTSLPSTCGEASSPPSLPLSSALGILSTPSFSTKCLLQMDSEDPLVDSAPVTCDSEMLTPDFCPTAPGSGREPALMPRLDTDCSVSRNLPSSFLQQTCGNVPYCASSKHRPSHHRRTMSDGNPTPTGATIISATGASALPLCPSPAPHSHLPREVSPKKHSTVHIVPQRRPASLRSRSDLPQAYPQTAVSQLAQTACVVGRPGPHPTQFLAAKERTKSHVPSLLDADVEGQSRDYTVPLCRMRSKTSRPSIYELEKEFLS
Procedure: as §1

WEE1 = target: T4, WEE1 (Homo sapiens, UniProt P30291)
T4 construct: purchased Life Technologies (SelectScreen Whole Panel service)
Procedure: as §1

DYRK2 = target: T5, DYRK2 (Homo sapiens, UniProt Q92630)
T5 construct: purchased Life Technologies
Procedure: as §1

STK17A (DRAK1) = target: T6, STK17A (DRAK1) (Homo sapiens, UniProt Q9UEE5)
T6 construct: purchased Life Technologies
Procedure: as §1

ABL1 H396P = ABL1 H396P (Homo sapiens, UniProt P00519, H396P)
Procedure: as §1

BRAF V599E = target: T7, BRAF V599E (Homo sapiens, UniProt P15056, V600E)
T7 construct: purchased Life Technologies
Procedure: as §1

KIT D816H = target: T8, KIT D816H (Homo sapiens, UniProt P10721, D816H)
T8 construct: purchased Life Technologies (SelectScreen service)
Procedure: as §1

EIF2AK2 (PKR) = target: T9, EIF2AK2 (PKR) (Homo sapiens, UniProt P19525)
T9 construct: purchased Life Technologies (SelectScreen service)
Procedure: as §1

SLK = target: T10, SLK (Homo sapiens, UniProt Q9H2G2)
T10 construct: purchased Life Technologies
Procedure: as §1

CDK13/cyclin K = target: T11, CDK13/cyclin K (Homo sapiens, UniProt Q14004)
T11 construct: purchased Life Technologies (SelectScreen Whole Panel service)
T11 sequence (Q14004 whole entry): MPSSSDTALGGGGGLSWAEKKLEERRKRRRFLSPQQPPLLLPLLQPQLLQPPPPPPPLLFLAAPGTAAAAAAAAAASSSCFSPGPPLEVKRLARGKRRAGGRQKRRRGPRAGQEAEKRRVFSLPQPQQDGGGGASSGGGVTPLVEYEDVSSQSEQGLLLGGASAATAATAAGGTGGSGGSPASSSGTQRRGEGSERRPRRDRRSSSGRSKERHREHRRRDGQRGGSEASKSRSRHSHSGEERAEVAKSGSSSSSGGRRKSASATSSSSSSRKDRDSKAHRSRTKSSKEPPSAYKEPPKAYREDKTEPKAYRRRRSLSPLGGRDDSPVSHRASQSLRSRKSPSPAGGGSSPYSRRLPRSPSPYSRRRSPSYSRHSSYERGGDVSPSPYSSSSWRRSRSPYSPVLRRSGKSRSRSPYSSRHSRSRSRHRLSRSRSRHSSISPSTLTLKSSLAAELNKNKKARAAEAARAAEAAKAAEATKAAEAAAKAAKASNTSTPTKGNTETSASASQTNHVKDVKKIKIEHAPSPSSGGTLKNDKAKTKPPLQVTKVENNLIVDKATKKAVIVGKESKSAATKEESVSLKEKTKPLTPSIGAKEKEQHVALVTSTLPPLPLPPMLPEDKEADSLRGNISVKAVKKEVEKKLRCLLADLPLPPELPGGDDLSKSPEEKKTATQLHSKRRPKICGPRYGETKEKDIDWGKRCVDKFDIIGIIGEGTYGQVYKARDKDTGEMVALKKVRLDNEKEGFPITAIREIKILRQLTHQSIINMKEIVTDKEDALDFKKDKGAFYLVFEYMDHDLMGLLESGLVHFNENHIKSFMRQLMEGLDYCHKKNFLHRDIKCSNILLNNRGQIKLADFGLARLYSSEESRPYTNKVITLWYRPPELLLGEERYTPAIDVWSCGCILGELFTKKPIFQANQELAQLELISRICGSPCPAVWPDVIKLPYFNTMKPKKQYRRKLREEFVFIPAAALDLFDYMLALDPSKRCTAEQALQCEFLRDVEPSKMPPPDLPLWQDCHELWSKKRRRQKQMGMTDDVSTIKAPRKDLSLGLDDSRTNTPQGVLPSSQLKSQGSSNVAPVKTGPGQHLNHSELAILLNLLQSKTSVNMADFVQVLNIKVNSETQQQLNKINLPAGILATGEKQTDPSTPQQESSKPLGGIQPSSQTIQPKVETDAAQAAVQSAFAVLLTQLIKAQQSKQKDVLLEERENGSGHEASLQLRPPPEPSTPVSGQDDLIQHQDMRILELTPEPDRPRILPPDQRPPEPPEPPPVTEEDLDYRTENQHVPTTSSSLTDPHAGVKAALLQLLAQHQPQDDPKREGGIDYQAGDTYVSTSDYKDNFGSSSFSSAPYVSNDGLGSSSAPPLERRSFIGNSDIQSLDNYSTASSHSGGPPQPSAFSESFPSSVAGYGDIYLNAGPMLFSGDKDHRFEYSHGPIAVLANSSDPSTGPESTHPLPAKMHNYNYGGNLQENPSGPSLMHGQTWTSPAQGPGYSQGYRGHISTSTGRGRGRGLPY
T11 sequence (O75909 whole entry partner): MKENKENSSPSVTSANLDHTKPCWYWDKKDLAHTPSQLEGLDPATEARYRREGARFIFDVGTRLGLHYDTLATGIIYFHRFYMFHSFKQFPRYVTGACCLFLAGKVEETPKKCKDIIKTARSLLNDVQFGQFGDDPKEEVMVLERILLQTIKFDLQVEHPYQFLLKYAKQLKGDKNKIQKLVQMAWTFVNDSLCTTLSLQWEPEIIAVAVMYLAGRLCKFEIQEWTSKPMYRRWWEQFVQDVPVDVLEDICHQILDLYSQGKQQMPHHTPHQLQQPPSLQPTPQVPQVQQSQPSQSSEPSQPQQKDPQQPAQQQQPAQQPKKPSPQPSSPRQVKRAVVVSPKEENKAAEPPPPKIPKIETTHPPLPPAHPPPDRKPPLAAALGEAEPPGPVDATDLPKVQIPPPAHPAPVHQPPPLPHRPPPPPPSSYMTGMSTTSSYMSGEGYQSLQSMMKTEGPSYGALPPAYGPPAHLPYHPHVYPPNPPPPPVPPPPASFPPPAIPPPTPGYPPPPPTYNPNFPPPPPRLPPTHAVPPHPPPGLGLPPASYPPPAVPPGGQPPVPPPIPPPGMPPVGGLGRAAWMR
Procedure: as §1

TAOK3 (JIK) = target: T12, TAOK3 (JIK) (Homo sapiens, UniProt Q9H2K8)
T12 construct: purchased Life Technologies (SelectScreen service)
Procedure: as §1

DDR2 = target: T13, DDR2 (Homo sapiens, UniProt Q16832)
T13 construct: purchased Life Technologies
Procedure: as §1

WNK2 = WNK2 (Homo sapiens, UniProt Q9Y3S1)
Procedure: as §1

MET D1228H = MET D1228H (Homo sapiens, UniProt P08581, D1228H)
Procedure: as §1

SIK1 = target: T14, SIK1 (Homo sapiens, UniProt P57059)
T14 construct: purchased Life Technologies (SelectScreen Whole Panel service)
Procedure: as §1

CDK9 (Inactive) = CDK9 (Inactive) (Homo sapiens, UniProt P50750)
CDK9 (Inactive), sequence (P50750 whole entry): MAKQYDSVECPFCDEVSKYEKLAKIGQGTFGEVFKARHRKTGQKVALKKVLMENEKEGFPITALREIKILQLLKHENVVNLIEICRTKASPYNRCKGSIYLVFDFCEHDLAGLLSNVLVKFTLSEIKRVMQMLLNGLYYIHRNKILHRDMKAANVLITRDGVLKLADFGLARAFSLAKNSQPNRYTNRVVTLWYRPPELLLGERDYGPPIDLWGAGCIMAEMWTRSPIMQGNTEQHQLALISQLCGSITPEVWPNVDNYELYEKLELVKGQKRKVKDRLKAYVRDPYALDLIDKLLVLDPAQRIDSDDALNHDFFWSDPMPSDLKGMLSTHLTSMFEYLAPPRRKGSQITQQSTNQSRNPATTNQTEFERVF
Procedure: as §1

ALK L1196M = target: T15, ALK L1196M (Homo sapiens, UniProt Q9UM73, L1196M)
T15 construct: purchased Life Technologies (SelectScreen Whole Panel service)
Procedure: as §1

MYLK (MLCK) = MYLK (MLCK) (Homo sapiens, UniProt Q15746)
Procedure: as §1

ACVR1 (ALK2) = target: T16, ACVR1 (ALK2) (Homo sapiens, UniProt Q04771)
T16 construct: purchased Life Technologies (SelectScreen Whole Panel service)
T16 sequence (Q04771 21-509): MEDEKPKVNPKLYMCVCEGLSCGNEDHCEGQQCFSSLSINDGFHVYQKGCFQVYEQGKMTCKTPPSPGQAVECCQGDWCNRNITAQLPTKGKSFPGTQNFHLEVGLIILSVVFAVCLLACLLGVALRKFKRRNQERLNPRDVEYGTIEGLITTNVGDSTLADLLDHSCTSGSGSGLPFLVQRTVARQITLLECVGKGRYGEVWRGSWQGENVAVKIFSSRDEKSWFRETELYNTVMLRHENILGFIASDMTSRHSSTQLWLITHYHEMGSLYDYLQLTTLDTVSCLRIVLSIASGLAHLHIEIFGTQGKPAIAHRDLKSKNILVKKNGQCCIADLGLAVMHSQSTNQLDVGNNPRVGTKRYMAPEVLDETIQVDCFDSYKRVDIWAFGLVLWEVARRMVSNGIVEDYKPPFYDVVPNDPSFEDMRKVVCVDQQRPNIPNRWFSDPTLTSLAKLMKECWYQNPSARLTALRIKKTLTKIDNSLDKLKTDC
Procedure: as §1

NLK = target: T17, NLK (Homo sapiens, UniProt Q9UBE8)
T17 construct: purchased Life Technologies (SelectScreen Whole Panel service)
Procedure: as §1

TLK1 = TLK1 (Homo sapiens, UniProt Q9UKI8)
Procedure: as §1

MAP3K5 (ASK1) = target: T18, MAP3K5 (ASK1) (Homo sapiens, UniProt Q99683)
T18 construct: purchased Life Technologies
Procedure: as §1

RET G691S = target: T19, RET G691S (Homo sapiens, UniProt P07949, G691S)
T19 construct: purchased Life Technologies (SelectScreen service)
Procedure: as §1

CDK2/cyclin A1 = target: T20, CDK2/cyclin A1 (Homo sapiens, UniProt P24941)
T20 construct: purchased Life Technologies (SelectScreen Whole Panel service)
Procedure: as §1

LATS2 = target: T21, LATS2 (Homo sapiens, UniProt Q9NRM7)
T21 construct: purchased Life Technologies (SelectScreen service)
Procedure: as §1

EPHA7 = target: T22, EPHA7 (Homo sapiens, UniProt Q15375)
T22 construct: purchased Life Technologies (SelectScreen service)
T22 sequence (Q15375 28-998): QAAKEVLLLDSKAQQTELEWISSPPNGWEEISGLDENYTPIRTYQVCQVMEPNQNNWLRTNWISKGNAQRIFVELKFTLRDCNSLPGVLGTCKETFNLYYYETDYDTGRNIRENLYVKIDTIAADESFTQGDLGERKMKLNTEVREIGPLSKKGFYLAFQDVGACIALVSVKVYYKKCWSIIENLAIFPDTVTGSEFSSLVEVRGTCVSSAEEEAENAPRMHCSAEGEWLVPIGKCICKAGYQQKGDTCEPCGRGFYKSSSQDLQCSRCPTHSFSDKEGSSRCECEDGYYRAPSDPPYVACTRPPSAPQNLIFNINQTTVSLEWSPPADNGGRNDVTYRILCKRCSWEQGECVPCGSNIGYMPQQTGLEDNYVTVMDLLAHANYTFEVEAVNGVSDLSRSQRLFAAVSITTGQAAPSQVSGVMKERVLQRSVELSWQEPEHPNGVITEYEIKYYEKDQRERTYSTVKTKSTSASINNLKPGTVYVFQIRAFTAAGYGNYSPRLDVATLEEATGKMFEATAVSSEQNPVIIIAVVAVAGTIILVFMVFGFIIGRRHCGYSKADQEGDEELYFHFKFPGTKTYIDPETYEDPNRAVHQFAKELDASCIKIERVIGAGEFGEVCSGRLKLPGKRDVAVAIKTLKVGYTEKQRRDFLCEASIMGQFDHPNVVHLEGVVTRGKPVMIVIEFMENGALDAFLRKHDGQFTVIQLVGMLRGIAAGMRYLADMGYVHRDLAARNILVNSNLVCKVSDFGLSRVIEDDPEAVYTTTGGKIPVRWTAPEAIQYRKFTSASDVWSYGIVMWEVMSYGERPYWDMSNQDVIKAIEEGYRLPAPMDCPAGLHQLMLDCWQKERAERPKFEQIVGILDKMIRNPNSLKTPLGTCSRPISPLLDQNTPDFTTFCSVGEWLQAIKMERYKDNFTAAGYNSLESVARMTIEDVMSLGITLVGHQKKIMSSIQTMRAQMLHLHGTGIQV
Procedure: as §1

RAF1 (cRAF) Y340D Y341D = target: T23, RAF1 (cRAF) Y340D Y341D (Homo sapiens, UniProt P04049, Y340D/Y341D)
T23 construct: purchased Life Technologies
Procedure: as §1

RET V804M = target: T24, RET V804M (Homo sapiens, UniProt P07949, V804M)
T24 construct: purchased Life Technologies (SelectScreen service)
Procedure: as §1

CDK11 (Inactive) = CDK11 (Inactive) (Homo sapiens, UniProt Q9BWU1)
Procedure: as §1

MAP2K5 (MEK5) = target: T25, MAP2K5 (MEK5) (Homo sapiens, UniProt Q13163)
T25 construct: purchased Life Technologies (SelectScreen service)
Procedure: as §1

IRAK3 = target: T26, IRAK3 (Homo sapiens, UniProt Q9Y616)
T26 construct: purchased Life Technologies (SelectScreen service)
Procedure: as §1

BMPR1B (ALK6) = target: T27, BMPR1B (ALK6) (Homo sapiens, UniProt O00238)
T27 construct: purchased Life Technologies (SelectScreen)
Procedure: as §1

CDK2/cyclin E1 = CDK2/cyclin E1 (Homo sapiens, UniProt P24941)
Procedure: as §1

MAP4K1 (HPK1) = target: T28, MAP4K1 (HPK1) (Homo sapiens, UniProt Q92918)
T28 construct: purchased Life Technologies (SelectScreen service)
Procedure: as §1

KIT A829P = target: T29, KIT A829P (Homo sapiens, UniProt P10721, A829P)
T29 construct: purchased Life Technologies (SelectScreen service)
Procedure: as §1

**Q.** What does the source list for `COc1ccc2[nH]c3c(=O)[nH]c4ccc(O)cc4c3c2c1` [Compound 55, 2-Hydroxy-10-methoxy-5,7-dihydro-6H-indolo[2,3-c]quinolin-6-one]?
**A.** inhibition at 1 µM (SIK3): 7%; inhibition at 1 µM (DMPK): 63%; inhibition at 1 µM (ADCK3): 60%; inhibition at 1 µM (KIT V559D T670I): 32%; inhibition at 1 µM (CDK11/cyclin C): 37%; inhibition at 1 µM (MLK4): 18%; inhibition at 1 µM (WEE1): 18%; inhibition at 1 µM (DYRK2): 97%; inhibition at 1 µM (STK17A (DRAK1)): 95%; inhibition at 1 µM (ABL1 H396P): 61%; inhibition at 1 µM (BRAF V599E): 6%; inhibition at 1 µM (KIT D816H): 80%; inhibition at 1 µM (EIF2AK2 (PKR)): 74%; inhibition at 1 µM (SLK): 40%; inhibition at 1 µM (CDK13/cyclin K): 17%; inhibition at 1 µM (TAOK3 (JIK)): 24%; inhibition at 1 µM (DDR2): 3%; inhibition at 1 µM (WNK2): 14%; inhibition at 1 µM (MET D1228H): 14%; inhibition at 1 µM (SIK1): 19%; inhibition at 1 µM (CDK9 (Inactive)): 59%; inhibition at 1 µM (ALK L1196M): 15%; inhibition at 1 µM (MYLK (MLCK)): 60%; inhibition at 1 µM (ACVR1 (ALK2)): 15%; inhibition at 1 µM (NLK): 15%; inhibition at 1 µM (TLK1): 68%; inhibition at 1 µM (MAP3K5 (ASK1)): 28%; inhibition at 1 µM (RET G691S): 91%; inhibition at 1 µM (CDK2/cyclin A1): 43%; inhibition at 1 µM (LATS2): 82%; inhibition at 1 µM (EPHA7): 23%; inhibition at 1 µM (RAF1 (cRAF) Y340D Y341D): 4%; inhibition at 1 µM (RET V804M): 88%; inhibition at 1 µM (CDK11 (Inactive)): 13%; inhibition at 1 µM (MAP2K5 (MEK5)): 80%; inhibition at 1 µM (IRAK3): 77%; inhibition at 1 µM (BMPR1B (ALK6)): 8%; inhibition at 1 µM (CDK2/cyclin E1): 64%; inhibition at 1 µM (MAP4K1 (HPK1)): 81%; inhibition at 1 µM (KIT A829P): 76%
